The values below come from article PMC7072329, “Discovery of Kynurenines Containing Oligopeptides as Potent Opioid Receptor Agonists” (Biomolecules, 2020).

Assay [1] relates to CD-1 male mice. Nature of the assay: formalin test. The class given is in vivo. The settings on record: s.c. in hind paw, 100 μg/20 μL, 15 min before formalin. The procedure:
(§1) In our experiments, we used CD-1 male mice (Harlan, Italy, 25–30 g) maintained in colony, housed in cages (7 mice per cage) under standard light/dark cycle (from 7:00 a.m. to 7:00 p.m.), temperature (21 ± 1 °C) and relative humidity (60% ± 10%) for at least 1 week. Food and water were available ad libitum. The Service for Biotechnology and Animal Welfare of the Istituto Superiore di Sanità and the Italian Ministry of Health authorized the experimental protocol according to Legislative Decree 26/14.
DMSO was purchased from Merck (Rome, Italy). Peptides solutions were freshly prepared using saline containing 0.9% NaCl and DMSO in the ratio DMSO/saline 1:5 v/v every experimental day. These solutions were injected at a volume of 10 μL/mouse for intracerebroventricular (i.c.v.) administrations or at a volume of 20 μL/mouse for subcutaneous administrations.
In the formalin test, the injection of a dilute solution of formalin (1%, 20 μL/paw) into the dorsal surface of the mouse hind paw evoked biphasic nociceptive behavioral responses, such as licking, biting the injected paw, or both, occurring from 0 to 10 min after formalin injection (the early phase) and a prolonged phase, occurring from 15 to 40 min (the late phase). Before the test, mice were individually placed in a Plexiglas observation cage (30 × 14 × 12 cm) for one hour, to acclimatize to the testing environment. The total time the animal spent licking or biting its paw during the early and late phase of formalin-induced nociception was recorded.
Experimental data were expressed as mean ± s.e.m. In the tail flick test, significant differences among the groups were evaluated with two-way ANOVA followed by Sidak’s multiple comparisons test. Formalin test data were analyzed by using one-way ANOVA, followed by Holm–Sidak’s multiple comparisons test. […] Statistical significance was set at p < 0.05. The data and statistical analysis comply with the recommendations on experimental design and analysis in pharmacology.
Early phase represents the formalin-induced nociceptive behavior recorded from 0 to 10 min after formalin injection; late phase is for the formalin-induced nociceptive behavior recorded from 15 to 40 min after formalin injection. V is for vehicle-treated animals. Statistical analysis: one-way ANOVA followed by Holm–Sidak’s multiple comparisons test. ** is for p < 0.01 and *** is for p < 0.001 vs. V. n = 7.

In assay [2] the test system is CD-1 male mice. Nature of the assay: tail flick test. The class given is in vivo. The settings on record: i.c.v., 10 μg/10 μL, 15 to 120 min. The procedure: as §1
DMSO was purchased from Merck (Rome, Italy). Peptides solutions were freshly prepared using saline containing 0.9% NaCl and DMSO in the ratio DMSO/saline 1:5 v/v every experimental day. […]
The tail flick latency was obtained using a commercial unit (Ugo Basile, Gemonio, Italy), consisting of an infrared radiant light source (100 W, 15 V bulb) focused onto a photocell utilizing an aluminum parabolic mirror. […] Radiant heat was focused 3–4 cm from the tip of the tail, and the latency (s) of the tail withdrawal to the thermal stimulus was recorded. […] The baseline latency was calculated as mean of three readings recorded before testing at intervals of 15 min and the time course of latency determined at 15, 30, 45, 60, 90, and 120 min after treatment. […]
Experimental data were expressed as mean ± s.e.m. […]
A general note: Thermal pain tests record how soon the animal reacts.

Assay [3] has as its system μ, δ, κ-receptors. More on the design: method as in PMID 25478797. The settings on record: cited from earlier work.
In assay [4] the test system is NMDA receptor. More on the design: method as in earlier work. The note with it: cited from earlier work.
Assay [5] addresses NMDA receptor. The experiment in a line: [3H]MK-801 competition binding, rat brain membrane. The settings on record: read-out: Ki + S.E.M., displacement of [3H]MK-801. For orientation: Loss of bound radioactivity is the signal in a displacement assay; it reports binding, not function.
Assay [6] concerns G-protein. Nature of the assay: functional [35S]GTPγS binding, guinea pig brain membrane homogenates. The settings on record: ligand alone. The class given is biochemical. The procedure:
(§2) Rats and guinea pigs were decapitated, and their brains were quickly removed. The brains were used for membrane preparation following the procedure reported by Benyhe for binding and [^35S]GTPγS binding experiments, in agreement with the protocol of Zádor et al..
(§3) Homogenization of brains was performed in 30 volumes (v/w) of ice-cold 50 mM Tris-HCl pH 7.4 buffer with a Teflon-glass Braun homogenizer at 1500 rpm. The centrifuge was settled at 18,000 rpm for 20 min at 4 °C, the resulting supernatant discarded, and the pellet taken up in the original volume of Tris-HCl buffer. Incubation of homogenate at 37 °C for 30 min was performed in a shaking water-bath. Five volumes of 50 mM Tris-HCl pH 7.4 buffer were used to suspend the final pellet at −80 °C. For the [^35S]GTPγS binding experiments, the brains were homogenized with a Dounce in 5 volumes (v/w) of ice-cold TEM (Tris-HCl, EGTA, MgCl2) at −80 °C. The protein content of the membrane preparation was determined by the method of Bradford, BSA being used as a standard.
(§4) The functional [^35S]GTPγS binding experiments were performed as previously described. Briefly the membrane homogenates were incubated at 30 °C for 60 min in Tris-EGTA buffer (pH 7.4) composed of 50 mM Tris-HCl, 1 mM EGTA, 3 mM MgCl2, 100 mM NaCl, containing 20 MBq/0.05 cm^3 [^35S]GTPγS (0.05 nM) and increasing concentrations (10^−10 to 10^−5 M) of ligands. The experiments were performed in the presence of excess GDP (30 μM) in a final volume of 1 mL. Total binding was measured in the absence of test compounds, non-specific binding was determined in the presence of 10 μM unlabeled GTPγS. The reaction was terminated by rapid filtration under vacuum and washed three times with 5 mL ice-cold 50 mM Tris-HCl (pH 7.4) buffer through Whatman GF/B glass fibers. The radioactivity of the filters was detected in an UltimaGold^TM MV aqueous scintillation cocktail with a Packard Tricarb 2300TR liquid scintillation counter.
(§5) Experimental data are presented as means ± S.E.M. Sigmoid dose-response curves were fitted with GraphPad Prism 5.0 (GraphPad Prism Software Inc., San Diego, CA, USA). An unpaired t-test with two-tailed p value was performed to determine the significance level. In the competition binding assays, the ‘One site competition’ fitting was used to establish the equilibrium binding affinity (Ki value).
Figure S3. The effect of novel oligopeptides on G-protein activity in [35S]GTPγS binding assays in the absence or presence of the selective MOR antagonist cyprodime (Cyp) and the selective DOR antagonist naltrindole (NTI) in rat brain membrane homogenates (Figure A) and the selective KOR antagonist norbinaltorphine (nor-BNI) in guinea pig brain membrane homogenates (Figure B). […]

The target in assay [7] is G-protein. Nature of the assay: functional [35S]GTPγS binding, rat brain membrane homogenates. The settings on record: for Potency Log EC50 ± S.E.M. / Maximal Stimulation (Efficacy) Emax ± S.E.M.: dose-response curves; for Maximal Stimulation (Efficacy) Emax ± S.E.M.: basal = 100%; for Emax + S.E.M., Ligand: ligand alone, bar graphs Figure S3. The class given is biochemical. The procedure: as §2, §3, §4, §5
[35S]GTPγS binding assay in rat brain membrane homogenates. Figure S2 represents the specific binding of [35S]GTPγS in percentage in presence of increasing concentrations (10-10 - 10^-5 M) of the indicated ligands. “Total” on the x-axis indicates the basal activity of the monitored G-protein, which is measured in the absence of the ligands and represents the total specific binding of [35S]GTPγS. The level of basal activity was defined as 100% and it is presented with a dotted line. Points represent means ± S.E.M. for at least three experiments […]
Figure S3. The effect of novel oligopeptides on G-protein activity in [35S]GTPγS binding assays in the absence or presence of the selective MOR antagonist cyprodime (Cyp) and the selective DOR antagonist naltrindole (NTI) in rat brain membrane homogenates (Figure A) and the selective KOR antagonist norbinaltorphine (nor-BNI) in guinea pig brain membrane homogenates (Figure B). The level of basal activity was defined as 100% and it is presented with a dotted line. Points represent means ± S.E.M. for at least three experiments performed
For orientation: GTPγS resists hydrolysis and so accumulates on activated G proteins.

In assay [8] the target is T1, κ-opioid receptor (Cavia porcellus, UniProt P41144).
T1 construct: aliquots of frozen rat and guinea pig brain membrane homogenates were thawed and suspended in 50 mM Tris-HCl buffer; from tissue; host or cells: guinea pig brain membrane homogenate
Nature of the assay: biochemical. The class given is binding. The note with it: KOR; guinea pig brain membrane; from IC50 by Cheng–Prusoff; read-out: Ki + S.E.M., displacement of [3H]HS665.

The target in assay [9] is T2, δ-opioid receptor (Rattus norvegicus, UniProt P33533).
T2 construct: aliquots of frozen rat and guinea pig brain membrane homogenates were thawed and suspended in 50 mM Tris-HCl buffer; from tissue; host or cells: Wistar rat brain membrane homogenate
The experiment in a line: biochemical. The class given is binding. The note with it: DOR; rat brain membrane; from IC50 by Cheng–Prusoff; read-out: Ki + S.E.M., displacement of [3H]Ile5,6Delt II.

On the set-up of assay [10]: method as in PMID 21598333. The settings on record: cited from earlier work.
The mark [11] stands for this setting: NMDA system, rat brain membrane, from IC50 by Cheng–Prusoff.

Where two headings read alike, the source gives them in different places. Where a SMILES comes first, the peptide text is derived from it. [ ]: non-standard residue; d: D form. Kyn = Nc1ccccc1C(=O)C[C@H](N)C(=O)O

T1 sequence (P41144 whole entry): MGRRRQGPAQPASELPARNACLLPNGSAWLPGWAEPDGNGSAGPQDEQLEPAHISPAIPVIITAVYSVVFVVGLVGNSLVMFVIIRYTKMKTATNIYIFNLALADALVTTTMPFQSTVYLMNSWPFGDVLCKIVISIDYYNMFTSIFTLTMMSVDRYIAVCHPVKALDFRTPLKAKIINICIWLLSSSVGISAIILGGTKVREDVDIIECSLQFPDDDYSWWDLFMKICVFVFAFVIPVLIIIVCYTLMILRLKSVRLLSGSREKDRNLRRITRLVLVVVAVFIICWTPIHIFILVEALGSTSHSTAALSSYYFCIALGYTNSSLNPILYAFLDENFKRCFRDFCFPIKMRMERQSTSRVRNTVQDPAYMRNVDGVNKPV
T2 sequence (P33533 whole entry): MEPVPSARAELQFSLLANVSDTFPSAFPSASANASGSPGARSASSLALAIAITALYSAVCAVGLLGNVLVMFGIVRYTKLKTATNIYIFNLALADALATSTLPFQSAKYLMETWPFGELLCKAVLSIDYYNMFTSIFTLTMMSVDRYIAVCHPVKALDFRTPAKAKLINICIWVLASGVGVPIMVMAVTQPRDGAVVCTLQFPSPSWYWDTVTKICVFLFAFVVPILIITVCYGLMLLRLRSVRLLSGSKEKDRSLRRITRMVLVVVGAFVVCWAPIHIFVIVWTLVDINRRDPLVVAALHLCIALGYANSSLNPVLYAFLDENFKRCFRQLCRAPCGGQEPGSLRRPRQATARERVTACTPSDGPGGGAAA

As for `C[C@@H](NC(=O)[C@@H](N)Cc1ccc(O)cc1)C(=O)NCC(=O)N(C)[C@@H](Cc1ccccc1)C(=O)NCCO` [DAMGO, Tyr-D-Ala-Gly-(NMe)Phe-Gly-ol, reference compound], the “formalin-induced nociceptive behavior, early phase” value in assay [1] (0 to 10 min) is “reduction of the nociceptive behavior both early and late”. For the same compound, the “formalin-induced nociceptive behavior, late phase” value in assay [1] (15 to 40 min) was “reduction of the nociceptive behavior both early and late”. Also, the “effect on time of response to thermal nociceptive stimuli (tail flick)” value in [2] is “greatly increase the time of response to thermal nociceptive stimuli”.

For the compound `CN(C)CCNC(=O)c1cc(=O)c2ccccc2[nH]1.Cl` [KYNA1], the “direct binding to μ, δ, κ-receptors in vitro” value in assay [3] is recorded as “did not directly bind”.

`O=C(O)c1cc(=O)c2ccccc2[nH]1` [KYNA, kynurenic acid]: in [3], the “direct binding to μ, δ, κ-receptors in vitro” value was “did not directly bind”. Moreover, the “affinity for NMDA receptor” value in assay [4] is “micromolar affinity”. Further, the Ki in assay [5] (setting [11]) was over 10 µM.

Take `Nc1ccccc1C(=O)C[C@H](N)C(=O)O` [L-kyn, L-kynurenine, reference compound]: the inhibition constant (Ki) in assay [5] (setting [11]) was over 10 µM.

Consider `NC(=O)[C@H](Cc1ccccc1)NC(=O)[C@H](CC(=O)c1ccccc1N)NC(=O)[C@@H]1CCCN1C(=O)[C@@H](N)Cc1ccc(O)cc1` [Peptide K2], for which the figures for the “Emax + S.E.M., Ligand” value in assay [6] and in assay [7] were 92.8 ± 2.0% and 129.9 ± 8.2%, respectively. In addition, the “Potency Log EC50 ± S.E.M.” value in assay [7] was −7.535 ± 0.354. Also, the “Maximal Stimulation (Efficacy) Emax ± S.E.M.” value (shortened to “Maximal Stimulation”) in assay [7] was found to be 121.6 ± 2.5%. Also, the Ki in [8] is 1.043 ± 0.0003 µM; in [5] it was over 10 µM; in [9] it was over 10 µM.

As for `NC(=O)[C@H](CC(=O)c1ccccc1N)NC(=O)[C@H](Cc1ccccc1)NC(=O)[C@@H]1CCCN1C(=O)[C@@H](N)Cc1ccc(O)cc1` [Peptide K3] (H-YPF[Kyn]-NH2), the results for the “Emax + S.E.M., Ligand” value in [6] and in assay [7] were 95.2 ± 2.2% and 118.9 ± 3.0%, respectively. In [7], the “Potency Log EC50 ± S.E.M.” value is recorded as −6.993 ± 0.422. In [7], the “Maximal Stimulation” value was determined as 114.0 ± 2.1%. Further, the Ki was over 10 µM in assay [8], over 10 µM in [5] and 0.159 ± 0.0016 µM in [9].

Consider `COC(=O)[C@H](CC(=O)c1ccccc1N)NC(=O)[C@H](Cc1ccccc1)NC(=O)CNC(=O)[C@@H](C)NC(=O)[C@@H](N)Cc1ccc(O)cc1` [Peptide K4] (H-Y[dA]GF[Kyn]-OMe), for which the “Emax + S.E.M., Ligand” value in assay [6] was found to be 125.2 ± 2.0%. Besides, in assay [7], the “Potency Log EC50 ± S.E.M.” value is −6.073 ± 0.172; the “Maximal Stimulation” value stood at 155.5 ± 4.8%; the “Emax + S.E.M., Ligand” value is on record as 160.6 ± 5.7%. For the same compound, the Ki in [8] is over 10 µM. In addition, in [5], the Ki was over 10 µM.

`C[C@@H](NC(=O)[C@@H](N)Cc1ccc(O)cc1)C(=O)NCC(=O)N[C@@H](Cc1ccccc1)C(=O)N[C@@H](CC(=O)c1ccccc1N)C(=O)O` [Peptide K5] (H-Y[dA]GF[Kyn]-OH): the Ki in [8] was over 10 µM.

Turning to FP-Kyn-L-NH2, the “concentration with opioid activity” value in assay [10] is 10^−7 M.

As usually defined, the Ki is the equilibrium dissociation constant of an inhibitor or competing ligand from its target.
